Our source for the TGI values is PubChem BioAssay (NCI).

Structures are written as SMILES.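 96-well plates; 48 h exposure; 5 concentrations. Endpoints by linear interpolation between flanking doses. Not reached: highest tested concentration assigned. Definition used: TGI = concentration required for complete inhibition of growth.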

Holding throughout (experiment): NCI tumour cell line growth inhibition, 48 h
For assay [1], the system named is NCI-H522 lung.
Assay [2] concerns SK-OV-3 ovarian.
The subject of assay [3] is M14 melanoma.
In assay [4] the test system is OVCAR-4 ovarian.
For assay [5], the system named is KM12 colon.
The subject of assay [6] is NCI-H460 lung.
For assay [7], the system named is DU-145 prostate.
Assay [8] concerns T-47D breast.
Assay [9] has as its system A498 renal.
Assay [10] relates to HOP-92 NSCLC.
Assay [11] relates to SF-539 CNS.
Assay [12] relates to BT-549 breast.
In assay [13] the test system is MDA-MB-435.

In the case of `COC(=O)n1c(=O)nc2c3c(ncn21)Oc1c(c(-c2ccccc2)nn1-c1ccccc1)C3c1ccc(Cl)cc1` (configuration not stated), the TGI came to 2.82 µM in assay [1]; 12.1 µM in assay [2]; 2.75 µM in assay [3]; 4.66 µM in [4]; 2.66 µM in assay [5]; 3.09 µM in assay [6]. Also, the TGI was determined as 2.98 µM in assay [7]; 3.23 µM in assay [8]; 5.02 µM in assay [9]; 3.39 µM in assay [10]; 3.14 µM in assay [11]; 17.7 µM in assay [12]. The same compound displayed a TGI in assay [13] of 3.02 µM.

In the case of `COc1c(O)cc(/C=C/c2cc(O)cc3c2[C@@]2(C(=O)O3)c3c(O)cc(O)cc3OC2c2cccc(O)c2)cc1O` (some centres not stated), the TGI is above 100 µM in [1]; 74.8 µM in assay [2]; above 100 µM in [3]; 91 µM in assay [4]; above 100 µM in assay [5]; 31.9 µM in assay [6]. Moreover, the TGI in assay [7], in assay [8], in [9], in assay [10], in assay [11] and in assay [12] was above 100 µM in each case. For the same compound, the TGI in [13] was above 100 µM.

Consider `CCOC(=O)CNC(=O)C(CSC(=O)N(O)c1ccc(Br)cc1)NC(=O)CCC(N)C(=O)OCC` (configuration not stated), for which the TGI in [1], in [2], in assay [3], in assay [4], in [5] and in assay [6] was above 50 µM in each case. Besides, the TGI in [7], in [8], in assay [9], in [10], in assay [11] and in [12] was above 50 µM each time. This compound also had a TGI in assay [13] above 50 µM.

For `Cc1ccc2c(c1)C(C1Cc3c(C)cccc3C1=O)OC2=O` (configuration not stated), the TGI in assay [1], in [2], in [3], in assay [4], in [5] and in assay [6] was above 100 µM in each case. Besides, the TGI in assay [7], in [8], in assay [9], in assay [10], in assay [11] and in [12] was above 100 µM in each case. Also, the TGI in assay [13] was above 100 µM.

On to `O=C(/C=C/c1ccc(O)c(O)c1)NC(CO)C(=O)O` (configuration not stated), for which the TGI in assay [1], in assay [2], in assay [3], in assay [4], in [5] and in assay [6] was above 100 µM in each case. Besides, the TGI in assay [7], in assay [8], in [9], in assay [10], in [11] and in assay [12] was above 100 µM in each case. Moreover, the TGI in assay [13] is above 100 µM.

For the compound `COc1ccc(/C=C/C(=O)NCC(NC(=O)/C=C/c2ccc(OC)c(OC)c2)C(=O)O)cc1OC` (configuration not stated), the TGI in [1], in assay [2], in assay [3], in assay [4], in assay [5] and in assay [6] was above 100 µM in each case. In addition, the TGI in assay [7] is above 100 µM; in assay [8] it was above 100 µM; in assay [9], above 100 µM; in assay [10], 0.74 µM; in assay [11], above 100 µM; in [12], above 100 µM. The same compound displayed a TGI in assay [13] above 100 µM.

In the case of `O=c1cc(-c2ccc(O)c(O)c2)oc2cc(OC3OC(CO)C(O)C(O)C3O)cc(O)c12` (configuration not stated), the TGI in assay [1], in assay [2], in [3], in [4], in assay [5] and in assay [6] was above 100 µM each time. For the same compound, the TGI in assay [7], in [8], in assay [9], in [10], in [11] and in assay [12] was above 100 µM in each case. This compound also registered a TGI in [13] above 100 µM.

In the case of `CN(CCO)CC(=O)CC(O)(C(F)(F)F)C(F)(F)F`, the TGI is above 100 µM in assay [1]; 74.3 µM in assay [2]; above 100 µM in assay [3]; above 100 µM in assay [4]; above 100 µM in assay [5]; above 100 µM in [6]. The TGI is above 100 µM in assay [7]; above 100 µM in [8]; above 100 µM in [9]; 54.2 µM in assay [10]; above 100 µM in [11]; above 100 µM in assay [12]. Also, the TGI in assay [13] was above 100 µM.

`Cc1ccc2c(ccc3c[n+]4ccccc4c(C)c32)c1`: the TGI in assay [1] was 10.7 µM; in assay [2] it was 44.8 µM; in [3], 20.9 µM; in [4], 10.8 µM; in assay [5], 2.5 µM; in assay [6] it was above 100 µM. For the same compound, the TGI in assay [7] was 26.6 µM; in assay [8], 12.2 µM; in assay [9] it was above 100 µM; in assay [10], 22.8 µM; in [11], 9.83 µM; in assay [12] it was 5.74 µM. The TGI in assay [13] was 17.1 µM.

As to `O=C(O)CCC(=O)Nc1ccc2c(c1)S(=O)(=O)N(CC(=O)O)C2=O`, the TGI in assay [1], in [2], in assay [3], in assay [4], in assay [5] and in assay [6] was above 100 µM in each case. Besides, the TGI in assay [7], in assay [8], in [9], in assay [10], in assay [11] and in [12] was above 100 µM each time. The compound further registered a TGI in assay [13] above 100 µM.

With `CN(C)c1ccc(C(C#N)N2CCCN(C(C#N)c3ccc(N(C)C)cc3)C2c2ccc(N(C)C)cc2)cc1` (configuration not stated), the TGI in assay [1], in [2], in assay [3], in assay [4], in assay [5] and in assay [7] was above 100 µM in each case. Besides, the TGI in [8], in [9], in [10], in assay [11], in assay [12] and in assay [13] was above 100 µM each time.
